The test system of test [1] is human astrocytes. Put plainly: Cytoprotection of human astrocytes against sodium arsenite. It counts as cell-based. As to conditions: compound 20 hrs before arsenite, then 22 hrs, FIG. 3. The protocol:
Human astrocytes from ScienCell (cat #1820) were grown in astrocyte medium per supplier's instructions. Cells cultured for no more than two passages were plated in poly-D-lysine coated 96-well plates at 40,000 cells per well for gene transcription experiments and 20,000 cell per well for glutathione and cytoprotection assays. Astrocytes were treated for 20 hrs with test compounds, then the medium was removed and replaced with serum- and supplement-free growth medium with and without 25 μM sodium arsenite. After 22 hrs., cells were washed with PBS, fixed with 4% paraformaldehyde/4% sucrose in PBS, stained with 4′,6-Diamidino-2-phenylindole dihydrochloride (DAPI) and counted by quantitative fluorescence microscopy.

For test [2], the system named is Nrf2 target genes. Put plainly: Nrf2 target gene expression (qRT-PCR) in tissues of wild type and Nrf2−/− mice. The test is classed as in vivo. The procedure: All procedures involving animals were performed in accordance with standards established in the Guide for the Care and Use of Laboratory Animals as adopted by the U.S. National Institutes of Health. All animal protocols were approved by the Biogen Institutional Animal Care and Use Committee, which is accredited by the Association for Assessment and Accreditation of Laboratory Animal Care International. Female 6-10 week-old wild type C57BL/6 and Nrf2−/− mice (Itoh et al, 1997; maintained at Jackson Labs, Bar Harbor, Me.) were maintained on a 12-hour light/dark cycle and given access to food and water ad libitum.
Compound 12-Ent1 (25 mg/kg) was administered as a single, oral dose in a vehicle of Solutol HS-15/polyethylene glycol/ethanol/water (10/10/10/70) to C57BL/6 (wt) and Nrf2−/− mice. Brain, jejunum, kidney and spleen were collected at 2 or 6 hours after dosing and snap frozen for RNA analysis of Nrf2 target genes.
For RNA preparation, frozen tissues were placed in 2 mL RNAse-free 96-well blocks with 1.5 ml QIAzol Lysis Reagent (QIAgen) and a 3.2 mm stainless steel bead (BioSpec Products, Bartlesville, Okla.). Tissues were disrupted for four cycles of 45 seconds in a Mini-Beadbeater (Biospec Products). RNA was extracted in chloroform and the aqueous phase was mixed with an equal volume of 70% ethanol. Extracted RNA was applied to RNeasy 96 plates and purified by the spin method according to the manufacturer's protocol (RNeasy 96 Universal Tissue Protocol, QIAgen, Hilden Germany).
qRT-PCR was performed from total mRNA isolated from tissues and reverse-transcribed into cDNA according to manufacturer protocols (Life Technologies, Carlsbad, Calif.). 20× Taqman target gene mouse primer/probe sets (see table below) were mixed with cDNA and 2× Taqman Universal Master Mix to a final volume of 20 uL. All final reactions contained 100 ng of cDNA, 900 nM of each primer, and 250 nM TaqMan® probes and were cycled on a QuantStudio™ 12K Flex system (Life Technologies). All samples were measured in triplicate using beta actin as a normalizing gene. Final analysis was performed using the comparative CT method to calculate fold changes and samples were normalized relative to wild type vehicle control at each time point.
(In general: Real-time PCR tracks product formation cycle by cycle.)

In test [3] the test system is HUDEP cells. Briefly: HbF protein ELISA in cultured HUDEP cells. The test is classed as cell-based, human. As to conditions: differentiating HUDEP cells, 72 hours, compared to DMSO; FIG. 8. The protocol:
Human Umbilical Derived Erythroid Cells (HUDEP; from Riken Institute, Japan) were cultured in Stemspan SFEM medium (Stemcell Technologies, Vancouver, Canada) supplemented with erythroid cytokines and growth factors. Compound incubations were performed in HUDEP cells cultured in differentiation media.
Differentiating HUDEP cells were cultured with increasing concentrations of 12-Ent1 or equivalent DMSO concentrations for 72 hours and the levels of HbF protein was measured using a commercially available ELISA specific for human HbF (Bethyl Laboratories, TX) based on manufacturer's protocol.
Background: In an ELISA, binding on a coated surface is turned into a signal by an enzyme label.

In test [4] the test system is γ-globin gene. Put plainly: γ-globin gene induction in spleen of Townes mice. It counts as in vivo, Townes SCD mouse. Conditions: Townes SS mice, oral single dose 10, 25 or 50 mg/kg or two doses of 25 mg/kg; at least at the 24 hour time point; FIGS. 9A-9D and 11. The source says:
(§1) All animal experiments conformed to the guidance issued by the Biogen Institutional Animal Care and Use Committee and are described in approved protocols. The SCD mouse strain used in the in vivo studies is the Townes SCD mouse [Wu L C, Sun C W, Ryan™, Pawlik K M, Ren J, Townes™. Correction of sickle cell disease by homologous recombination in embryonic stem cells. Blood. 2006, 108(4):1183-8]. […] These mice harboring the sickle cell mutations in the hemoglobin β-globins chain show the presence of sickle cell disease characterized by abnormally low hemoglobin, circulating sickle shaped erythrocytes, varying degrees of damage of internal organs such as spleen, liver, and kidney. Male and female Townes SS mice aged 8 to 12 weeks were used for studies described here. […]
(§2) Frozen spleens were placed at room temperature. […] Extracted RNA was then quantitated using a Nanodrop and 1 μg of total RNA was converted to cDNA using VILO Mastermix kit according to manufacturer's protocol.
(§3) cDNA prepared from RNA isolated from tissue samples was used to determine gene expression levels of using Taqman based real time PCR (Life Technologies, ThermoFisher Scientific). […] Results were analyzed using the 7500 software version 2.0.5 and the relative levels of transcripts were measured with GAPDH as the endogenous housekeeping gene control using the 2^−ΔΔCt relative quantification method.

Test [5] deals with NQO-1 gene. Briefly: NQO-1 gene induction in spleen of Townes mice. It counts as in vivo, Townes SCD mouse. Conditions: Townes SS mice, oral single dose 10 or 50 mg/kg or two doses of 25 mg/kg; at least at the 6 hour time point; FIGS. 10A-10C and 12.
From the text: as §1, §2, §3

Test [6] has as its system Nrf2 target genes. Briefly: Gene expression (RT-PCR) in cultured human astrocytes. It counts as cell-based. Conditions: human astrocytes treated 20 hours; compared to 0.03% DMSO vehicle; FIGS. 1A to 1D. The procedure: (§4) Human astrocytes from ScienCell (cat #1820) were grown in astrocyte medium per supplier's instructions. Cells cultured for no more than two passages were plated in poly-D-lysine coated 96-well plates at 40,000 cells per well for gene transcription experiments and 20,000 cell per well for glutathione and cytoprotection assays.
Primary cultures of human spinal cord astrocytes were treated with test compounds for 20 hours. The cells were then rinsed in PBS, lysed, and processed for RNA using Ambion Taqman™ Cells-to-CT kit. The resulting cDNA was stored at −20° C. until analysis by real-time polymerase chain reaction (RT-PCR). The cDNA mixture from Cells-to-CT was diluted 5× before loading into PCR. This yields results similar to using 6 ng of purified cDNA. RT-PCR was performed on Life Technologies QuantStudio platform using OpenArray technique according to manufacturer's protocol using the following Taqman primers: […]
The comparative CT method was used to calculate fold changes using ThermoFisher Cloud software for PCR analysis. Samples were compared to 0.03% DMSO vehicle control.

The subject of test [7] is human astrocytes. Briefly: Glutathione assay in cultured human astrocytes. The test is classed as cell-based. Conditions: 20-hr exposure, FIG. 2. The procedure:
as §4
Intracellular glutathione was measured after a 20-hr exposure to test compounds by a two-step process. First, cells were lysed and luciferin quantitatively generated from substrate, catalyzed by glutathione-S-transferase in the presence of analyte glutathione. Then luciferin was assayed using stabilized luciferase to produce a luminescent signal proportional to the concentration of glutathione (Promega GSH-Glo, cat #V6912).

Setting [8] is: wild type vs Nrf2−/− mice, 25 mg/kg oral.

With `CC(=O)N1CC[C@@H]2C(C)(C)C(=O)C(C#N)=C[C@@]2(C)C1` (single isomer, unassigned) [Compound 12-Ent1], the “protection from oxidative stress-induced cell death caused by 25 μM sodium arsenite” value in test [1] was “protects cells”. Moreover, the “expression of Akr1b8, Nqo1, Hmox1 and Osgin1 in kidney” value in test [2] (25 mg/kg single oral dose, 2 hours and 6 hours after dosing, FIGS. 4A to 4D) is recorded as “increases”. For the same compound, in test [2] (25 mg/kg single oral dose, 2 hours and 6 hours after dosing, FIGS. 5A to 5D), the “expression of Akr1b8, Nqo1, Hmox1 and Osgin1 in Jejunum” value is listed as “increases”. For the same compound, in test [2] (25 mg/kg single oral dose, 2 hours and 6 hours after dosing, FIGS. 6A to 6D), the “expression of Nqo1, Hmox1 and Osgin1 in spleen” value was “increases”. In test [2] (25 mg/kg single oral dose, 2 hours and 6 hours after dosing, FIGS. 7A to 7D), the “expression of Nqo1, Hmox1 and Osgin1 in brain” value is “increases”. Further, in test [2] (setting [8]), the “Nrf2 dependence of the gene expression increases in Jejunum” value is recorded as “Nrf2-dependent”, the “Nrf2 dependence of the gene expression increases in brain” value is listed as “Nrf2-dependent”, the “Nrf2 dependence of the gene expression increases in kidney” value is “Nrf2-dependent” and the “Nrf2 dependence of the gene expression increases in spleen” value is “Nrf2-dependent”. For the same compound, the “HbF protein in cultured HUDEP cells” value in test [3] was “induces”. Also, the “human γ-globin gene in spleen” value in test [4] is listed as “induces”. Also, the “NQO-1 gene in spleen” value in test [5] is given as “induces”. The “transcription of Nrf2 target genes, including GCLC, HMOX1, OSGIN1 and NQO1” value in test [6] is “induces transcription”. Further, in test [7], the intracellular glutathione entry is listed as “increases”.

Values taken from US10968181B2, “NRF2 activator” (BIOGEN MA INC., priority 2016, dated 2021).
